According to patent US9725465B2, “Biaryl acetamide compounds and methods of use thereof” (Ambit Biosciences Corporation, priority 2013, dated 2017):

Legend:
KIT kinase = KIT kinase (Homo sapiens (Human), UniProt P10721); assay: Competition binding assay (Kd), KIT; details: competition binding assay
Method: In certain embodiments, competition binding assays were performed as described in Fabian et al., Nature Biotechnology 2005, 23, 329-336.
Competition binding assays used herein were developed, validated and performed as described in Fabian et al., Nature Biotechnology 2005, 23, 329-336. Kinases were produced as fusions to T7 phage (See, Fabian et al. or WO04/015142) or alternatively, the kinases were expressed in HEK-293 cells and subsequently tagged with DNA for PCR detection (See, WO08/005,310). […] The liganded beads were blocked with excess biotin and washed with blocking buffer (SeaBlock (Pierce), 1% BSA, 0.05% Tween 20, 1 mM DTT) to remove unbound ligand and to reduce non-specific binding. […] Test compounds were prepared as 100× stocks in DMSO and diluted into the aqueous environment. Kds were determined using an eleven point threefold serial dilutions. DMSO or control compounds were was added to control assays lacking a test compound. […] The kinase concentration in the eluates was measured by quantitative PCR. […]

FLT3 kinase = FLT3 kinase (Homo sapiens (Human), UniProt P36888); assay: Competition binding assay (Kd), FLT3; details: competition binding assay
FLT3 kinase, sequence (P36888 27-993): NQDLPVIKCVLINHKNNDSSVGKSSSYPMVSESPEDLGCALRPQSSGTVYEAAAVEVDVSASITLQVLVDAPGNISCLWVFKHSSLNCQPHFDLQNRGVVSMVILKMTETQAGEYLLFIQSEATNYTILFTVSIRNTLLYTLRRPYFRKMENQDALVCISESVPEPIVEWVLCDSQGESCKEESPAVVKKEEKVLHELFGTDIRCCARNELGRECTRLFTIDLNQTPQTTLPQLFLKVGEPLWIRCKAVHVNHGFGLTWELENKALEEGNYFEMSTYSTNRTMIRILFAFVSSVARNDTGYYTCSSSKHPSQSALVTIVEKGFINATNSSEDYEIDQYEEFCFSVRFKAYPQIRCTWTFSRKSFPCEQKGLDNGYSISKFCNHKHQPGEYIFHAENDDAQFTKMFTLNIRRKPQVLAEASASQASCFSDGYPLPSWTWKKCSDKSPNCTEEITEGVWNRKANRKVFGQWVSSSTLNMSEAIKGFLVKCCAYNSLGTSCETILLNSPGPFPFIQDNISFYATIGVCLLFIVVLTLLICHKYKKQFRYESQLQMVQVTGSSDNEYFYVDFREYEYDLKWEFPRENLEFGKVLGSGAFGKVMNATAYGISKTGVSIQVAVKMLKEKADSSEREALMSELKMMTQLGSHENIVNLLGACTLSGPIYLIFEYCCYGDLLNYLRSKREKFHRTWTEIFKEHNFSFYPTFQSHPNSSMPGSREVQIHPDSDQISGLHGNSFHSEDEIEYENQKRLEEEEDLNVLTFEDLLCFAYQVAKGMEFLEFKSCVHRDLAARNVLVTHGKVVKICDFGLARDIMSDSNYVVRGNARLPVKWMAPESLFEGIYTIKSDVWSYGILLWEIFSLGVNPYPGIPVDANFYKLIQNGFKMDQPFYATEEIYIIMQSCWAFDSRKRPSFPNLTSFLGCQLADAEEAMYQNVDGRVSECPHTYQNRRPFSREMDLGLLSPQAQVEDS

KIT kinase, sequence (P10721 26-976): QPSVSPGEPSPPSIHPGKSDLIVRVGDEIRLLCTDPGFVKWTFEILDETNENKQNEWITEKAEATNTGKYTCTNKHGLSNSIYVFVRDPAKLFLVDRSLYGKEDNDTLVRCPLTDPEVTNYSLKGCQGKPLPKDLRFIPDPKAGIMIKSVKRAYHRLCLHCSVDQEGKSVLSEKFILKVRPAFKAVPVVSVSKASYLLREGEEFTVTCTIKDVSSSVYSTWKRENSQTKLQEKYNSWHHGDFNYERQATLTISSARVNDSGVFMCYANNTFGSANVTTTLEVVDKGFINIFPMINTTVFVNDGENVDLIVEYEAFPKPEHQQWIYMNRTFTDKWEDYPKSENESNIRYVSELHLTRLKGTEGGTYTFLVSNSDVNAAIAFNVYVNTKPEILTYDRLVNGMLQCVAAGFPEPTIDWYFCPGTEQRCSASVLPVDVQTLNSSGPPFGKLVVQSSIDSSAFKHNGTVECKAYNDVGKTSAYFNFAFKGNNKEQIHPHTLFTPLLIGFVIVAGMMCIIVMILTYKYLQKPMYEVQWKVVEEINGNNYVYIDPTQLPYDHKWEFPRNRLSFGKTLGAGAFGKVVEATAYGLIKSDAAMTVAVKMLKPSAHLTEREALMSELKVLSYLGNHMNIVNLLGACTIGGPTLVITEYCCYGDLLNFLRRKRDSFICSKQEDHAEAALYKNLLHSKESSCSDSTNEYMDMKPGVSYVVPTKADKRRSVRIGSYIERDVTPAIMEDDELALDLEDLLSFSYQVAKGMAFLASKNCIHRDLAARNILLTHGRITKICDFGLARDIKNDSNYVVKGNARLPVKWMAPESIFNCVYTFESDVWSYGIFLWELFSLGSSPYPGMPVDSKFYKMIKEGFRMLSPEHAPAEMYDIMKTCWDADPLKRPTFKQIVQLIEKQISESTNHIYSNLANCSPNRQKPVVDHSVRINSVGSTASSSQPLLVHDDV

Kd (KIT kinase)	Kd (FLT3 kinase)	Structure (SMILES)
< 5 nM	< 5 nM	COc1cc2ncc(-c3ccc(CC(=O)Nc4cc(C(C)(C)C(F)(F)F)on4)c(F)c3)cc2cc1OCCN1CC[C@H](O)[C@@H](F)C1 (stereo in doubt) [Example 87, 2-(2-Fluoro-4-{6-[2-(3-fluoro-4-hydroxy-piperidin-1-yl)-ethoxy]-7-methoxy-quinolin-3-yl}-phenyl)-N-[5-(2,2,2-trifluoro-1,1-dimethyl-ethyl)-isoxazol-3-yl]-acetamide]
< 5 nM	< 5 nM	O=C(Cc1ccc(-c2cnc3ccsc3c2)cc1)Nc1cc(C2(C(F)(F)F)CC2)on1 [Example 10, 2-(4-(thieno[3,2-b]pyridin-6-yl)phenyl)-N-(5-(1-(trifluoromethyl)cyclopropyl)isoxazol-3-yl)acetamide]
< 5 nM	< 5 nM	O=C(Cc1ccc(-c2cnc3ccncc3c2)cc1)Nc1cc(C2(C(F)(F)F)CC2)on1 [Example 12, 2-(4-(1,6-naphthyridin-3-yl)phenyl)-N-(5-(1-(trifluoromethyl)cyclopropyl)isoxazol-3-yl)acetamide]
5 to 20 nM	< 5 nM	COc1cc(OC)c2cc(-c3ccc(CC(=O)Nc4cc(C5(C(F)(F)F)CC5)on4)cc3)cnc2c1 [Example 13, 2-(4-(5,7-dimethoxyquinolin-3-yl)phenyl)-N-(5-(1-(trifluoromethyl)cyclopropyl)isoxazol-3-yl)acetamide]
< 5 nM	< 5 nM	O=C(Cc1ccc(-c2cnc3[nH]cnc3n2)cc1)Nc1cc(C2(C(F)(F)F)CC2)on1 [Example 14, 2-(4-(1H-imidazo[4,5-b]pyrazin-5-yl)phenyl)-N-(5-(1-(trifluoromethyl)cyclopropyl)isoxazol-3-yl)acetamide]
< 5 nM	< 5 nM	COc1cc2nc(-c3ccc(CC(=O)Nc4cc(C5(C(F)(F)F)CC5)on4)c(F)c3)cnc2cc1OCCN1CCC(F)(F)C1 [Example 82, 2-(4-(6-(2-(3,3-difluoropyrrolidin-1-yl)ethoxy)-7-methoxyquinoxalin-2-yl)-2-fluorophenyl)-N-(5-(1-(trifluoromethyl)cyclopropyl)isoxazol-3-yl)acetamide]
< 5 nM	< 5 nM	COc1cc2nc(-c3ccc(CC(=O)Nc4cc(C5(C(F)(F)F)CC5)on4)c(F)c3)cnc2cc1Br [Example 83, 2-(4-(6-bromo-7-methoxyquinoxalin-2-yl)-2-fluorophenyl)-N-(5-(1-(trifluoromethyl)cyclopropyl)isoxazol-3-yl)acetamide]
< 5 nM	< 5 nM	COc1cc2nc(-c3ccc(CC(=O)Nc4cc(C5(C(F)(F)F)CC5)on4)c(F)c3)cnc2cc1CC(O)CO (centres unmarked) [Example 84, 2-(4-(6-(2,3-dihydroxypropyl)-7-methoxyquinoxalin-2-yl)-2-fluorophenyl)-N-(5-(1-(trifluoromethyl)cyclopropyl)isoxazol-3-yl)acetamide]
< 5 nM	< 5 nM	COc1cc2nc(-c3ccc(CC(=O)Nc4cc(C5(C(F)(F)F)CC5)on4)c(F)c3)cnc2cc1NCCN1CCOCC1 [Example 85, 2-(2-fluoro-4-(7-methoxy-6-((2-morpholinoethyl)amino)quinoxalin-2-yl)phenyl)-N-(5-(1-(trifluoromethyl)cyclopropyl)isoxazol-3-yl)acetamide]
< 5 nM	< 5 nM	COc1cc2nc(-c3ccc(CC(=O)Nc4cc(C(C)(C)C(F)(F)F)on4)cc3)cnc2cc1OCCN1CCOCC1 [Example 93, 2-(4-(7-methoxy-6-(2-morpholinoethoxy)quinoxalin-2-yl)phenyl)-N-(5-(1,1,1-trifluoro-2-methylpropan-2-yl)isoxazol-3-yl)acetamide]
> 50 nM	5 to 20 nM	COc1cc2ncc(-c3ccc(CC(=O)Nc4cc(C5(C(F)(F)F)CC5)nn4C(C)(C)C)c(F)c3)nc2cc1OC [Example 173, N-[2-tert-butyl-5-[1-(trifluoromethyl)cyclo-propyl]pyrazol-3-yl]-2-[4-(6,7-dimethoxy-quinoxalin-2-yl)-2-fluoro-phenyl]acetamide]

The next lines start with the compound.

Structure (SMILES)	Kd (KIT kinase)	Kd (FLT3 kinase)
Nc1nc2ccccc2nc1-c1ccc(CC(=O)Nc2cc(C3(C(F)(F)F)CC3)on2)cc1 [Example 7, 2-(4-(3-aminoquinoxalin-2-yl)phenyl)-N-(5-(1-(trifluoromethyl)cyclopropyl)isoxazol-3-yl)acetamide]	< 5 nM	< 5 nM
Cn1ccc2ncc(-c3ccc(CC(=O)Nc4cc(C5(C(F)(F)F)CC5)on4)cc3)nc21 [Example 9, 2-(4-(5-methyl-5H-pyrrolo[2,3-b]pyrazin-3-yl)phenyl)-N-(5-(1-(trifluoromethyl)cyclopropyl)isoxazol-3-yl)acetamide]	< 5 nM	< 5 nM
O=C(Cc1ccc(-c2cnc3cccnc3c2)cc1)Nc1cc(C2(C(F)(F)F)CC2)on1 [Example 11, 2-(4-(1,5-naphthyridin-3-yl)phenyl)-N-(5-(1-(trifluoromethyl)cyclopropyl)isoxazol-3-yl)acetamide]	< 5 nM	< 5 nM
COc1cc2nc(-c3ccc(CC(=O)Nc4cc(C5(C(F)(F)F)CC5)on4)c(F)c3)cnc2cc1OCCN1CCN(C)CC1 [Example 81, 2-(2-fluoro-4-(7-methoxy-6-(2-(4-methylpiperazin-1-yl)ethoxy)quinoxalin-2-yl)phenyl)-N-(5-(1-(trifluoromethyl)cyclopropyl)isoxazol-3-yl)acetamide]	< 5 nM	< 5 nM
COc1cc2nc(-c3ccc(CC(=O)Nc4cc(C(C)(C)C)on4)c(F)c3)cnc2cc1OCCN1CCOCC1 [Example 92, N-(5-(tert-butyl)isoxazol-3-yl)-2-(2-fluoro-4-(7-methoxy-6-(2-morpholinoethoxy)quinoxalin-2-yl)phenyl)acetamide]	< 5 nM	–
COc1cc2nc(-c3ccc(CC(=O)Nc4cc(C5(C(F)(F)F)CC5)on4)c(F)c3)cnc2cc1OCCN1CCOCC1(C)C [Example 96, 2-(4-(6-(2-(3,3-dimethylmorpholino)ethoxy)-7-methoxyquinoxalin-2-yl)-2-fluorophenyl)-N-(5-(1-(trifluoromethyl)cyclopropyl)isoxazol-3-yl)acetamide]	< 5 nM	< 5 nM
CCN1CCN(CCOc2cc3ncc(-c4ccc(CC(=O)Nc5cc(C6(C(F)(F)F)CC6)on5)c(F)c4)nc3cc2OC)CC1 [Example 105, 2-[4-[6-[2-(4-ethylpiperazin-1-yl)ethoxy]-7-methoxy-quinoxalin-2-yl]-2-fluoro-phenyl]-N-[5-[1-(trifluoromethyl)cyclo-propyl]isoxazol-3-yl]acetamide]	< 5 nM	< 5 nM
COc1cc2nc(-c3ccc(CC(=O)Nc4cc(C(C)(C)C(F)(F)F)on4)c(F)c3)cnc2cc1OCCN1CCOCC1 [Example 171, 2-[2-fluoro-4-[7-methoxy-6-(2-morpholino-ethoxy)quinoxalin-2-yl]phenyl]-N-[5-(2,2,2-trifluoro-1,1-dimethyl-ethyl)isoxazol-3-yl]acetamide]	< 5 nM	–
COc1cc2ncc(-c3ccc(CC(=O)Nc4cc(C5(C(F)(F)F)CC5)nn4C)c(F)c3)nc2cc1OC [Example 172, 2-[4-(6,7-dimethoxyquinoxalin-2-yl)-2-fluoro-phenyl]-N-[2-methyl-5-[1-(trifluoro-methyl)cyclopropyl]pyrazol-3-yl]acetamide]	< 5 nM	< 5 nM
